Results published in patent US12233070B2, “Methods for treating benzodiazepine misuse/use disorder” (University of M[…] Center, priority 2020, dated 2025).
Where two headings read alike, the source gives them in different places.

Columns and labels:
[1] = target: α1 subunit-containing GABAA receptors (Homo sapiens, UniProt P14867+P18507); design: key to Subtype α1: act as partial positive modulators for particular subtype combinations; none: zero efficacy (i.e., antagonism) at other subtypes; conditions: cited from earlier work
Sequence of α1 subunit-containing GABAA receptors (P14867 28-456): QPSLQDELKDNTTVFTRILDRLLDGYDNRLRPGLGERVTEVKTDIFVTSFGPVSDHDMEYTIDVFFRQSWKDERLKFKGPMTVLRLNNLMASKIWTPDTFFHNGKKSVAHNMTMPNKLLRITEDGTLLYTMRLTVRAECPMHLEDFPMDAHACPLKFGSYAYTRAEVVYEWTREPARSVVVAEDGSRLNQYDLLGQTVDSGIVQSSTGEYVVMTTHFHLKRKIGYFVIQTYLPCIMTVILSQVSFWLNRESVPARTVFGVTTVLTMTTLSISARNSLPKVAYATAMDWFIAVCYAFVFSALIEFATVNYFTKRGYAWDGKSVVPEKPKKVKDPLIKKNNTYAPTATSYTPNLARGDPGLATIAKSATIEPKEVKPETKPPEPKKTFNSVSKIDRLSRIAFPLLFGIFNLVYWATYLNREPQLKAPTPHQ
Sequence of α1 subunit-containing GABAA receptors (P18507 40-475): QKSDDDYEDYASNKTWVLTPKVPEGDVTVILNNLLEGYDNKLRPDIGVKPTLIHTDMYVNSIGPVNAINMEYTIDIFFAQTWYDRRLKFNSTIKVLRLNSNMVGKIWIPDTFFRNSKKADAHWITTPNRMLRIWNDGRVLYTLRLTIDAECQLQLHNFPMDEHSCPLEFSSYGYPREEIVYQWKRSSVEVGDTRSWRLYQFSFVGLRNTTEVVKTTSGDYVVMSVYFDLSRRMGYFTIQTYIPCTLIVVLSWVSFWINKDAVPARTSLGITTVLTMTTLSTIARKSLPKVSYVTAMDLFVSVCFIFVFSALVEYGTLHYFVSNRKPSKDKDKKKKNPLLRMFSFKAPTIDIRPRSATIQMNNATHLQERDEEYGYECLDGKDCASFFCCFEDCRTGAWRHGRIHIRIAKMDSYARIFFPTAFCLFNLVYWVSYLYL
Sequence of α1 subunit-containing GABAA receptors (P28472 26-473 partner): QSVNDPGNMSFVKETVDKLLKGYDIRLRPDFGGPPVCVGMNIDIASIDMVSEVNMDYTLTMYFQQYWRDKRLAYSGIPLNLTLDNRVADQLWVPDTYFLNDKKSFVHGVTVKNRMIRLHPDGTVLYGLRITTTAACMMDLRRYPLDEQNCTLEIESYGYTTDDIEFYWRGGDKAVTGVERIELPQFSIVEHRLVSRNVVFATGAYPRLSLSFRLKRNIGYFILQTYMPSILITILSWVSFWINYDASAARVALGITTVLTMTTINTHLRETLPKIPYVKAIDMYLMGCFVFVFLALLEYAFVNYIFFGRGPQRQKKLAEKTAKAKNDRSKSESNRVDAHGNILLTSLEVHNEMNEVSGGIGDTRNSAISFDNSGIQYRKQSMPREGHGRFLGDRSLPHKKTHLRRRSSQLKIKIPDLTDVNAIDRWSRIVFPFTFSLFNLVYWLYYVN

[2] = system: benzodiazepine binding sites; conditions: cited from earlier work
[3] = system: men; conditions: cited from earlier work
[4] = system: rhesus monkeys; test: i.v. self-administration under progressive-ratio (PR) schedule; assay type: in vivo, rhesus monkey; conditions: dose at which self-administration was highest; n=4 monkeys; FIG. 5
Description: The abuse potential of novel compounds can be determined by use of i.v. self-administration procedures, in which a compound is available to a subject previously trained to press a lever to obtain a known drug of abuse. Our standard procedure is to use a progressive-ratio (PR) schedule, in which an increasing number of responses are required to obtain an injection. The last response requirement completed is referred to as a “break point” (BP) and represents the maximum amount of “work” a subject will perform to obtain the drug or compound.
In the present example, eight rhesus monkeys (4 females, 4 males) were trained to respond under a schedule of i.v. midazolam (a conventional benzodiazepine) injection at 0.03 mg/kg/injection. Once self-administration had been acquired (>20 injections/daily 2-hour sessions), monkeys were trained under the PR schedule as described by Shinday et al. (2013). Daily experimental sessions consisted of five components, each made up of four trials (i.e., 20 trials total). […]
In order to directly compare lorazepam and TPA023B self-administration, we here analyzed BP values at the doses that maintained the highest level of mean injections/session and compared these BP values with those obtained after vehicle tests.

[5] = system: rodent, squirrel monkey; conditions: rodent and squirrel monkey models; cited from earlier work
[6] = target: α2 subunit-containing GABAA receptors (Homo sapiens, UniProt P18507+P47869); design: key: act as partial positive modulators for particular subtype combinations; none: zero efficacy (i.e., antagonism) at other subtypes; conditions: cited from earlier work
Sequence of α2 subunit-containing GABAA receptors (P47869 29-451): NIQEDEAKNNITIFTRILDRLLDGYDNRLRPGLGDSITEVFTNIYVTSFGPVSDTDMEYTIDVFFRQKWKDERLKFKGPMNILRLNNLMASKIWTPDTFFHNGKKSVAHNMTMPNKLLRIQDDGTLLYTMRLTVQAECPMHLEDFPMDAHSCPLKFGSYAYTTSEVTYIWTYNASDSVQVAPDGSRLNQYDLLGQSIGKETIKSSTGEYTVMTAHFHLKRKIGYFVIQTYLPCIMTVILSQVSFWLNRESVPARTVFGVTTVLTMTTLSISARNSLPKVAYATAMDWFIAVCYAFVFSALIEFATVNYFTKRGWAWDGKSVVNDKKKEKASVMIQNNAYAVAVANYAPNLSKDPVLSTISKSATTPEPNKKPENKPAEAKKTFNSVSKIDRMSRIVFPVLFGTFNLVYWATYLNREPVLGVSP
Sequence of α2 subunit-containing GABAA receptors (P18507 40-475): as the sequence (P18507 40-475) above
Sequence of α2 subunit-containing GABAA receptors (P28472 26-473 partner): as the sequence (P28472 26-473 partner) above

[7] = target: α5 subunit-containing GABAA receptors (Homo sapiens, UniProt P18507+P31644); design: key to Subtype α5: act as partial positive modulators for particular subtype combinations; none: zero efficacy (i.e., antagonism) at other subtypes; conditions: cited from earlier work
Sequence of α5 subunit-containing GABAA receptors (P31644 32-462): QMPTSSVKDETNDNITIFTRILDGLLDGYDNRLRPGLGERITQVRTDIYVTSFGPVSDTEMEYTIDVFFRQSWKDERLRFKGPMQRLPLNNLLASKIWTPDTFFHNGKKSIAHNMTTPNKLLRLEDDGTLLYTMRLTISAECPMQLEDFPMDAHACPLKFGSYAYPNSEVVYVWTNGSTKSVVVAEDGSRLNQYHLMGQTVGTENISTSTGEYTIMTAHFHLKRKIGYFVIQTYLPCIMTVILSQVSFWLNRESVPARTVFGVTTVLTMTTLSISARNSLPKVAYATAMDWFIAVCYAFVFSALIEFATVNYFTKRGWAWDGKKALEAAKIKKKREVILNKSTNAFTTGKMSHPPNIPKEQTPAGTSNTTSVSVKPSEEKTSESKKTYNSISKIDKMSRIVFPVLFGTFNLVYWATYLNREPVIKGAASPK
Sequence of α5 subunit-containing GABAA receptors (P18507 40-475): as the sequence (P18507 40-475) above
Sequence of α5 subunit-containing GABAA receptors (P28472 26-473 partner): as the sequence (P28472 26-473 partner) above

[8] = system: rodent, squirrel monkey; conditions: rodent rotarod and chain-pulling, squirrel monkey lever pressing; cited from earlier work
[9] = system: CNS benzodiazepine binding sites; conditions: 1.5 mg/70 kg oral, PET; cited from earlier work
[10] = system: rhesus monkeys; test: Midazolam self-administration (PR) after TPA023B pretreatment; assay type: in vivo, rhesus monkey
Procedure: To test this, we have trained monkeys to self-administer the short-acting conventional benzodiazepine midazolam (0.056 mg/kg/injection, i.v.) in the PR procedure, as described above. During test sessions, we initially kept the training dose of midazolam constant, and administered i.v. pretreatments of TPA023B (0.003, 0.01, 0.03, 0.1, 0.3 mg/kg, of vehicle) immediately prior to the beginning of the session. A key consideration for any pharmacotherapy, as well as interpretation of blockade of reinforcing effects generally, is the extent to which the blockade is specific to the drug target and not a generalized suppression of behavior, e.g., due to sedative-motor effects inhibiting the ability of the monkey to press the lever. Another possible confounding factor that would potentially result in blockade of drug taking is general sickness or perceptual alterations. In particular, appetite suppression would represent an undesirable side effect in a benzodiazepine addiction pharmacotherapy.
To further evaluate the extent to which attenuation of responding was due to pharmacological antagonism and to evaluate an exemplary range of effective doses, we evaluated single doses of TPA023B administered prior to sessions in which differing doses of midazolam were tested.

[11] = system: rhesus monkeys; conditions: visual recognition memory and spatial working memory; cited from earlier work

CC(C)(O)c1cnn2c(-c3ccc(F)c(-c4c(F)cccc4C#N)c3)cnc2n1 [TPA023B]
Subtype α1 [1]: none
occupancy of benzodiazepine binding sites ([2]; 1.0 and 3.0 mg/kg): up to 95%
occupancy of benzodiazepine binding sites in brain ([2]; 3.0 and 10 mg/kg): ≤ 95%
ataxia ([3]; any dose, up to 3.0 mg/70 kg): No ataxia
adverse effects ([3]; oral, 1.5 mg/70 kg, men): no adverse effects
adverse effects ([3]; oral, 3.0 mg/70 kg, men): fatigue and drowsiness in some subjects
subjects with fatigue and drowsiness ([3]; oral, 3.0 mg/70 kg, men): 1-4 subjects out of 8 total
median break point (BP), highest response requirement [4]: 160
anxiolytic-like effects [5]: anxiolytic-like effects
Subtype α2 [6]: partial
Subtype α5 [7]: partial
sedation [8]: minimally sedating
occupancy of CNS benzodiazepine binding sites [9]: 50-55%
effect on midazolam dose-response function ([10]; TPA023B 0.01 mg/kg pretreatment): shifted the midazolam dose-response function to the right
reduction of midazolam-maintained responding ([10]; TPA023B 0.03 mg/kg i.v. pretreatment, midazolam 0.018 and 0.056 mg/kg/injection): > 50%
midazolam self-administration, percent maximum ([10]; all midazolam doses, FIG. 8): below 50%
doses with both anti-conflict effects and blockade of midazolam self-administration ([10]; conflict and self-administration data combined, FIG. 8): ≥ 0.03 mg/kg
midazolam self-administration, % of maximum ([10]; higher doses of TPA023B (above 0.01 mg/kg), even at higher midazolam doses): < 50%
midazolam self-administration, percent maximum ([10]; highest TPA023B dose, FIG. 8): below 25%
effect on self-administration of midazolam ([10]; pretreatment with 0.003 mg/kg TPA023B): did not attenuate
accuracy in DMTS and SOSS tasks [11]: did not alter accuracy
